Test results reported in patent US20240360174A1, “CELL-PENETRATING PEPTIDE SEQUENCES” (Ohio State Innovation Foundation, priority 2016, published 2024).
Square brackets hold non-standard residues; d marks the D form. Ends that are not written are not given here. Phe(4-F) = N[C@@H](Cc1ccc(F)cc1)C(=O)O; 2Nal = N[C@@H](Cc1ccc2ccccc2c1)C(=O)O; d2Nal = N[C@H](Cc1ccc2ccccc2c1)C(=O)O; Pip = O=C(O)[C@@H]1CCCCN1; Dap = NC[C@H](N)C(=O)O

What follows are substances tested on HeLa cells (assay: Cellular uptake / cytosolic delivery efficiency of NF-labelled peptides by flow cytometry). Conditions: 2 h, 5 mM naphthofluorescein-labelled peptide, relative to CPP 1 (100%), mean ± S.D. of three independent experiments.
Type: cell-based
Text: Absolute cytosolic delivery efficiency is the ratio of cytosolic concentration of a CPP (or a CPP-cargo conjugate) over the concentration of the CPP (or the CPP-cargo conjugate) in the growth medium. Relative cytosolic delivery efficiency refers to the concentration of a CPP in the cytosol compared to the concentration of a control CPP in the cytosol. Quantification can be achieved by fluorescently labeling the CPP (e.g., with a FTIC dye) and measuring the fluorescence intensity using techniques well-known in the art.
In particular embodiments, relative cytosolic delivery efficiency is determined by comparing (i) the amount of a CPP of the invention internalized by a cell type (e.g., HeLa cells) to (ii) the amount of the control CPP internalized by the same cell type. To measure relative cytosolic delivery efficiency, the cell type may be incubated in the presence of a cell-penetrating peptide of the invention for a specified period of time (e.g., 30 minutes, 1 hour, 2 hours, etc.) after which the amount of the CPP internalized by the cell is quantified using methods known in the art, e.g., fluorescence microscopy. Separately, the same concentration of the control CPP is incubated in the presence of the cell type over the same period of time, and the amount of the control CPP internalized by the cell is quantified.
To determine cellular uptake efficiency of the CPPs disclosed herein, HeLa cells were cultured in 12-well plates (1.5×10^5 cells per well) overnight. The cells were incubated for 2 h with […] naphthofluorescein (NF)-labelled peptide in cellular media. At the end of incubation, the cells were washed with DPBS twice, detached from the plate with 0.25% trypsin, diluted into clear DMEM, pelleted at 250 g for 5 min, washed twice with DPBS, resuspended in DPBS, and analyzed on a BD FACS LSR II flow cytometer. For NF-labelled peptides, a 633-nm laser was used for excitation and the fluorescence emission was analyzed in the APC channel. Absolute cellular uptake efficiency was determined by comparing the concentration (via fluorescence intensity) of the CPP in the cytosol to the concentration in the extracellular medium.

Row | Substance | Relative Cytosolic Delivery Efficiency [%]
1 | cyclo(FRFRRRQ) (cyclic) [SAR 33] | 132 ± 57
2 | cyclo(FFrRrQ) (cyclo(FF[dR]R[dR]Q); SMILES N=C(N)NCCC[C@@H]1NC(=O)[C@@H](CCCNC(=N)N)NC(=O)[C@H](Cc2ccccc2)NC(=O)[C@H](Cc2ccccc2)NC(=O)[C@H](CCC(N)=O)NC(=O)[C@@H](CCCNC(=N)N)NC1=O) [SAR 20] | 118 ± 5
3 | cyclo(FFFRRRRRQ (cyclic) [SAR 53] | 145 ± 27
4 | cyclo(RFFRRRRQ) (cyclic) [SAR 46] | 104 ± 5
5 | cyclo(FΦrRrQ) (cyclo(F[2Nal][dR]R[dR]Q); SMILES N=C(N)NCCC[C@@H]1NC(=O)[C@@H](CCCNC(=N)N)NC(=O)[C@H](Cc2ccc3ccccc3c2)NC(=O)[C@H](Cc2ccccc2)NC(=O)[C@H](CCC(N)=O)NC(=O)[C@@H](CCCNC(=N)N)NC1=O) [SAR 64] | 63 ± 11
6 | cyclo(FΦRrRrQ) (cyclo(F[2Nal]R[dR]R[dR]Q); SMILES N=C(N)NCCC[C@@H]1NC(=O)[C@H](Cc2ccc3ccccc3c2)NC(=O)[C@H](Cc2ccccc2)NC(=O)[C@H](CCC(N)=O)NC(=O)[C@@H](CCCNC(=N)N)NC(=O)[C@H](CCCNC(=N)N)NC(=O)[C@@H](CCCNC(=N)N)NC1=O) [SAR 55] | 212 ± 42
7 | cyclo(FFRRRQ) (cyclic) [SAR 19] | 89 ± 34
8 | cyclo(FRRRFQ) (cyclic) [SAR 24] | 25 ± 4
9 | cyclo(RRFFFRRQ) (cyclic) [SAR 49] | 112 ± 20
10 | cyclo(FFRRRRQ) (cyclic) [SAR 28] | 89 ± 27
11 | cyclo(FFRFRRQ) (cyclic) [SAR 38] | 106 ± 22
12 | cyclo(FRRFRRQ) (cyclic) [SAR 29] | 31 ± 3
13 | cyclo(FFRRRFQ) (cyclic) [SAR 35] | 158 ± 21
14 | cyclo(fΦrRrQ) (cyclo([dF][2Nal][dR]R[dR]Q); SMILES N=C(N)NCCC[C@@H]1NC(=O)[C@@H](CCCNC(=N)N)NC(=O)[C@H](Cc2ccc3ccccc3c2)NC(=O)[C@@H](Cc2ccccc2)NC(=O)[C@H](CCC(N)=O)NC(=O)[C@@H](CCCNC(=N)N)NC1=O) [SAR 65] | 172 ± 37
15 | cyclo(XXRRRRQ) (cyclo([Phe(4-F)][Phe(4-F)]RRRRQ); SMILES N=C(N)NCCC[C@@H]1NC(=O)[C@H](CCCNC(=N)N)NC(=O)[C@H](CCCNC(=N)N)NC(=O)[C@H](Cc2ccc(F)cc2)NC(=O)[C@H](Cc2ccc(F)cc2)NC(=O)[C@H](CCC(N)=O)NC(=O)[C@H](CCCNC(=N)N)NC1=O) [SAR 56] | 165 ± 22
16 | cyclo(FFFRRQ) (cyclic) [SAR 27] | 125 ± 25
17 | cyclo(FRFRFRQ) (cyclic) [SAR 42] | 105 ± 14
18 | Ac-(Dap-fFRrRrD) (Ac-[Dap][dF]FR[dR]R[dR]D; not fully specified (bridges); printed as Ac-(Dap-fFRrRrD); also: cyclic, closure sites not given here) [SAR 67] | 126 ± 33

Row | Substance | Relative Cytosolic Delivery Efficiency [%]
19 | cyclo(FFFRRRRRR (FFFRRRRRRQ; cyclic) [SAR 54] | 141 ± 10
20 | cyclo(FFRRRRFQ) (cyclic) [SAR 51] | 162 ± 16
21 | cyclo(fFΦrRrQ) (cyclo([dF]F[d2Nal][dR]R[dR]Q); SMILES N=C(N)NCCC[C@@H]1NC(=O)[C@@H](CCCNC(=N)N)NC(=O)[C@@H](Cc2ccc3ccccc3c2)NC(=O)[C@H](Cc2ccccc2)NC(=O)[C@@H](Cc2ccccc2)NC(=O)[C@H](CCC(N)=O)NC(=O)[C@@H](CCCNC(=N)N)NC1=O) [SAR 61] | 330 ± 101
22 | cyclo(Pip-Nal-Nal-Arg-arg-arg-Glu) [Pin1 18] | 340 ± 130
23 | cyclo(Pip-Nal-Phe-Arg-arg-arg-glu) (cyclo([Pip][2Nal]FR[dR][dR][dE]); SMILES N=C(N)NCCC[C@@H]1NC(=O)[C@H](Cc2ccccc2)NC(=O)[C@H](Cc2ccc3ccccc3c2)NC(=O)[C@@H]2CCCCN2C(=O)[C@@H](CCC(=O)O)NC(=O)[C@@H](CCCNC(=N)N)NC(=O)[C@@H](CCCNC(=N)N)NC1=O) [Pin1 19] | 19 ± 16
24 | cyclo(RFRRFRQ) (cyclic) [SAR 32] | 94 ± 9
25 | cyclo(FfFRrRQ) (cyclo(F[dF]FR[dR]RQ); SMILES N=C(N)NCCC[C@@H]1NC(=O)[C@H](Cc2ccccc2)NC(=O)[C@@H](Cc2ccccc2)NC(=O)[C@H](Cc2ccccc2)NC(=O)[C@H](CCC(N)=O)NC(=O)[C@H](CCCNC(=N)N)NC(=O)[C@@H](CCCNC(=N)N)NC1=O) [SAR 57] | 218 ± 9
26 | cyclo(GΦRRRQ) [SAR 44] (cyclo(G[2Nal]RRRRQ); SMILES N=C(N)NCCC[C@@H]1NC(=O)[C@H](Cc2ccc3ccccc3c2)NC(=O)CNC(=O)[C@H](CCC(N)=O)NC(=O)[C@H](CCCNC(=N)N)NC(=O)[C@H](CCCNC(=N)N)NC(=O)[C@H](CCCNC(=N)N)NC1=O) | 55 ± 5
27 | cyclo(FFFRRRRQ) (cyclic) [SAR 45] | 122 ± 20
28 | cyclo(Pip-Nal-Arg-Arg-arg-arg-glu) (cyclo([Pip][2Nal]RR[dR][dR][dE]); SMILES N=C(N)NCCC[C@@H]1NC(=O)[C@H](Cc2ccc3ccccc3c2)NC(=O)[C@@H]2CCCCN2C(=O)[C@@H](CCC(=O)O)NC(=O)[C@@H](CCCNC(=N)N)NC(=O)[C@@H](CCCNC(=N)N)NC(=O)[C@H](CCCNC(=N)N)NC1=O) [Pin1 16] | 18 ± 2
29 | cyclo(fFfrRrQ) (cyclo([dF]F[dF][dR]R[dR]Q); SMILES N=C(N)NCCC[C@@H]1NC(=O)[C@@H](CCCNC(=N)N)NC(=O)[C@@H](Cc2ccccc2)NC(=O)[C@H](Cc2ccccc2)NC(=O)[C@@H](Cc2ccccc2)NC(=O)[C@H](CCC(N)=O)NC(=O)[C@@H](CCCNC(=N)N)NC1=O) [SAR 58] | 280 ± 106
30 | cyclo(Pip-Nal-Phe-Arg-arg-arg-Glu) [Pin1 20] | 15 ± 6
31 | cyclo(Pip-Nal-phe-Arg-arg-arg-glu) (cyclo([Pip][2Nal][dF]R[dR][dR][dE]); SMILES N=C(N)NCCC[C@@H]1NC(=O)[C@@H](Cc2ccccc2)NC(=O)[C@H](Cc2ccc3ccccc3c2)NC(=O)[C@@H]2CCCCN2C(=O)[C@@H](CCC(=O)O)NC(=O)[C@@H](CCCNC(=N)N)NC(=O)[C@@H](CCCNC(=N)N)NC1=O) [Pin1 21] | 27 ± 15
32 | cyclo(FRRRFRQ) (cyclic) [SAR 30] | 20 ± 3
33 | cyclo(FFRrRQ) (cyclo(FFR[dR]RQ); SMILES N=C(N)NCCC[C@@H]1NC(=O)[C@H](Cc2ccccc2)NC(=O)[C@H](Cc2ccccc2)NC(=O)[C@H](CCC(N)=O)NC(=O)[C@H](CCCNC(=N)N)NC(=O)[C@@H](CCCNC(=N)N)NC1=O) [SAR 21] | 59 ± 7
34 | cyclo(FFFRAQ) (cyclic) [SAR 26] | 52 ± 2
35 | cyclo(FRRFFRRQ) (cyclic) [SAR 52] | 127 ± 22
